Where no end group is shown, it is not given here. [ ]: non-standard residue; d: D form. 1Nal = N[C@@H](Cc1cccc2ccccc12)C(=O)O; Aib = CC(C)(N)C(=O)O
Tested on: diet-induced obese (DIO) mice
Test: Effects on food intake, body weight and body composition in DIO mice
Format: in vivo
Conditions: for Fat mass loss (g fat weight change for 14 days) / Total food intake (g total for 14 days) / Overall weight loss (g weight change for 14 days): DIO mice
Procedure: Effects on Food Intake, Body Weight and Body Composition in Diet-Induced Obese (DIO) Mice
Three to four months old male diet-induced obese (DIO) mice are used. Animals are individually housed in a temperature-controlled (24° C.) facility with a 12 hour light/dark cycle (lights on 22:00), and have free access to food and water. After 2 weeks acclimation to the facility, mice are randomized to treatment groups (n=8-10/group) so that each group has similar mean body weight and fat mass. Before the experiment, mice are subcutaneously (sc) injected with vehicle solution and weighed for 7 days to acclimate them to the procedures.
Vehicle or peptide analog (dose range 10-100 nmol/Kg) dissolved in vehicle is administered by sc injection to ad libitum fed DIO mice 30-90 minutes prior to the onset of the dark cycle […] for 2 to 4 weeks. Body weight and the weight of food plus the hopper are measured at the same time. Food consumed in the last 24 hours is calculated by subtracting current weight of food plus the hopper from that of the previous day. Absolute changes in body weight are calculated by subtracting the body weight of the animal prior to the first injection. On days −1 and 14, total fat mass is measured by nuclear magnetic resonance (NMR) using an Echo Medical System (Houston, Tex.) instrument. Fat free mass is calculated by subtracting fat mass from total body weight.

“Aib^2, Aib^13, Nal^22, Aib^29, Cys^43(PEG20K), Cys^44 (PEG20K)-GIP (Y[Aib]EGTFTSDYSI[Aib]LDKIAQRA[1Nal]VQWLIA[Aib]KGKKQEWKHQITQC(PEG 20 kDa)C(PEG 20 kDa)-NH2) [Example 4]” was tested, and the “cumulative food intake and body weight compared to vehicle-treated mice” value (14-day DIO mouse studies, summary of Tables 6a and 6b) was “decreased”, the “Fat mass loss (g fat weight change for 14 days)” value (Table 6a, 10 nmol/Kg) was -3.6 ± 1.1 g and the “Total food intake (g total for 14 days)” value (Table 6a, 10 nmol/Kg) was 28.4 ± 1.8 g. For the same substance, the “Overall weight loss (g weight change for 14 days)” value (Table 6a, 10 nmol/Kg sc every 3 days) was -4.5 ± 0.3 g, the “Fat mass loss (g fat weight change for 14 days)” value (Table 6a, 30 nmol/Kg) was -4.7 ± 0.4 g and the “Total food intake (g total for 14 days)” value (Table 6a, 30 nmol/Kg) was 25.5 ± 2.6 g. For the same substance, the “Overall weight loss (g weight change for 14 days)” value (Table 6a, 30 nmol/Kg sc every 3 days) was -6.0 ± 0.4 g, the “Fat mass loss (g fat weight change for 14 days)” value (Table 6b, 10 nmol/Kg) was -3.6 ± 0.3 g and the “Overall weight loss (g weight change for 14 days)” value (Table 6b, 10 nmol/Kg) was -4.9 ± 0.4 g. The “Total food intake (g total for 14 days)” value (Table 6b, 10 nmol/Kg) was 26.9 ± 1.5 g.

From patent publication US8815811B2, “Peptides and methods for their preparation and use” (Eli Lilly and Company, priority 2010, dated 2014)
